Measurements published in patent US20030229228A1 (priority 2000, published 2003).

Row | melting point | SMILES
1 | 109 to 111 °C | CCS(=O)(=O)N[C@H](C(=O)NCCc1cc(Br)c(OCC#Cc2ccc(Cl)cc2)c(OC)c1)C(C)C
2 | 145 to 147 °C | CCS(=O)(=O)N[C@H](C(=O)NCCc1cc(Br)c(O)c(OC)c1)C(C)C
